Data published in ChEMBL document CHEMBL2311351, “Synthesis and biological evaluation of triazolothienopyrimidine derivatives as novel HIV-1 replication inhibitors” (Bioorg Med Chem Lett, 2013).

Key:
[1] = tested on: Human immunodeficiency virus 1; assay: Antiviral activity against HIV1 LAI infected in CEMx174-LTR-GFP cells assessed as inhibition of viral replication after 5 days by fluorescence assay; format: functional, organism-based
[2] = Cytotoxicity against human CEmx174 cells expressing LTR-GFP; format: cell-based
[3] = Therapeutic index, ratio of CC50 for human CEmx174 cells expressing LTR-GFP to EC50 for HIV1 LAI; settings: read-out: Ratio CC50/EC50
[4] = tested on: Human immunodeficiency virus 1; assay: Antiviral activity against HIV1 LAI infected in CEMx174-LTR-GFP cells assessed as inhibition of viral replication at 10 uM after 5 days by fluorescence assay; format: functional; settings: Human immunodeficiency virus 1, LAI, 120 h
[5] = Human immunodeficiency virus 1, LAI, 120 h, read-out: EC50

Work on `Cc1ccc(-c2nc3c(S(=O)(=O)c4cccc(Cl)c4)nnn3c3ccsc23)cc1` yielded an EC50 [1, 5] of 0.84 µM, a CC50 [2] of 61 µM and a selectivity ratio [3] of 72.
`O=S(=O)(c1cccc(Cl)c1)c1nnn2c1nc(N1CCN(Cc3ccccc3)CC1)c1sccc12` showed an EC50 [1, 5] of 0.71 µM, a CC50 [2] of over 50 µM and a selectivity ratio [3] of over 70.
`O=S(=O)(c1cccc(Cl)c1)c1nnn2c1nc(N1CCOCC1)c1sccc12` showed an EC50 [1, 5] of 0.27 µM, a CC50 [2] of 74 µM and a selectivity ratio [3] of 274.
Work on `O=C(O)c1nnn2c1nc(N1CCOCC1)c1sccc12` yielded an EC50 [1, 5] of 4.8 µM, a CC50 [2] of 42 µM and a selectivity ratio [3] of 8.7.
For `O=C(c1cccc(Cl)c1)c1nnn2c1nc(N1CCOCC1)c1sccc12`, the EC50 [1, 5] was 0.93 µM, the CC50 [2] was over 50 µM and the selectivity ratio [3] was over 53.
`CCOc1ccc(-c2nc3c(S(=O)(=O)c4cccc(Cl)c4)nnn3c3ccsc23)cc1` showed an EC50 [1, 5] of 0.51 µM, a CC50 [2] of 61 µM and a selectivity ratio [3] of 119.
In the case of `O=S(=O)(c1cccc(Cl)c1)c1nnn2c1nc(-c1ccc(O)cc1)c1sccc12`, the EC50 [1, 5] is reported as 0.87 µM, the CC50 [2] is reported as 10 µM and the selectivity ratio [3] is reported as 11.
Molecule `O=C(Nc1cccc(Cl)c1)c1nnn2c1nc(N1CCOCC1)c1sccc12` has an EC50 [1, 5] of 0.37 µM, a CC50 [2] of over 50 µM and a selectivity ratio [3] of over 135.
Work on `O=S(=O)(c1cccc(Cl)c1)c1nnn2c1nc(Nc1ccccc1)c1sccc12` yielded an EC50 [1, 5] of 2.3 µM, a CC50 [2] of over 50 µM and a selectivity ratio [3] of over 21.
`CC(C)CCNc1nc2c(S(=O)(=O)c3cccc(Cl)c3)nnn2c2ccsc12` gave an inhibition at 10 µM [4] of 58%.
With `COc1cccc(S(=O)(=O)c2nnn3c2nc(N2CCOCC2)c2sccc23)c1` the EC50 [1, 5] was 1.1 µM, the CC50 [2] was over 50 µM and the selectivity ratio [3] was over 45.
`O=S(=O)(c1ccccc1Cl)c1nnn2c1nc(N1CCOCC1)c1sccc12` showed an EC50 [1, 5] of 1.1 µM, a CC50 [2] of 56 µM and a selectivity ratio [3] of 50.
With `COCCNc1nc2c(S(=O)(=O)c3cccc(Cl)c3)nnn2c2ccsc12` the EC50 [1, 5] was 1.9 µM, the CC50 [2] was over 50 µM and the selectivity ratio [3] was over 26.
Work on `O=S(=O)(c1cccc(F)c1)c1nnn2c1nc(N1CCOCC1)c1sccc12` yielded an EC50 [1, 5] of 0.85 µM, a CC50 [2] of over 50 µM and a selectivity ratio [3] of over 58.
With `CC(C)Nc1nc2c(S(=O)(=O)c3cccc(Cl)c3)nnn2c2ccsc12` the EC50 [1, 5] was 2.2 µM, the CC50 [2] was over 50 µM and the selectivity ratio [3] was over 22.
In the case of `COc1ccc(-c2nc3c(S(=O)(=O)c4cccc(Cl)c4)nnn3c3ccsc23)cc1`, the EC50 [1, 5] is reported as 0.06 µM, the CC50 [2] is reported as 60 µM and the selectivity ratio [3] is reported as 1000.
`O=S(=O)(c1cccc(Cl)c1)c1nnn2c1nc(N1CCCCC1)c1sccc12` showed an EC50 [1, 5] of 0.19 µM, a CC50 [2] of 75 µM and a selectivity ratio [3] of 394.
`O=S(=O)(c1ccccc1)c1nnn2c1nc(N1CCOCC1)c1sccc12` gave an EC50 [1, 5] of 16 µM, a CC50 [2] of 39 µM and a selectivity ratio [3] of 2.4.
For `O=S(=O)(c1nnn2c1nc(N1CCOCC1)c1sccc12)C1CCCCC1`, the EC50 [1] was “Not Active” and the CC50 [2] was over 50 µM.
For `O=S(=O)(c1cccc(Cl)c1)c1nnn2c1nc(NC1CCCCC1)c1sccc12`, the EC50 [1, 5] was 6.7 µM, the CC50 [2] was over 50 µM and the selectivity ratio [3] was over 7.4.
In the case of `O=S(=O)(c1cccc(Br)c1)c1nnn2c1nc(N1CCOCC1)c1sccc12`, the EC50 [1, 5] is reported as 3.3 µM, the CC50 [2] is reported as over 50 µM and the selectivity ratio [3] is reported as over 15.
`CN(C)c1ccc(-c2nc3c(S(=O)(=O)c4cccc(Cl)c4)nnn3c3ccsc23)cc1` gave an EC50 [1, 5] of 3.1 µM, a CC50 [2] of over 50 µM and a selectivity ratio [3] of over 16.
With `O=S(=O)(c1cccc(Cl)c1)c1nnn2c1nc(-c1ccccc1Cl)c1sccc12` the EC50 [1, 5] was 0.67 µM, the CC50 [2] was over 50 µM and the selectivity ratio [3] was over 74.
Molecule `O=S(=O)(c1cccc(Cl)c1)c1nnn2c1nc(N1CCCCCC1)c1sccc12` has an EC50 [1, 5] of 4 µM, a CC50 [2] of 35 µM and a selectivity ratio [3] of 8.7.
In the case of `CCOC(=O)c1nnn2c1nc(N1CCOCC1)c1sccc12`, the EC50 [1, 5] is reported as 0.8 µM, the CC50 [2] is reported as over 50 µM and the selectivity ratio [3] is reported as over 62.
With `O=S(=O)(c1cccc(Cl)c1)c1nnn2c1nc(-c1ccc(Cl)cc1)c1sccc12` the EC50 [1, 5] was 0.53 µM, the CC50 [2] was 46 µM and the selectivity ratio [3] was 86.
`CN(c1ccccc1)c1nc2c(S(=O)(=O)c3cccc(Cl)c3)nnn2c2ccsc12` showed an EC50 [1, 5] of 2.1 µM, a CC50 [2] of over 50 µM and a selectivity ratio [3] of over 23.
With `Cc1ccc(S(=O)(=O)c2nnn3c2nc(NCCC(C)C)c2sccc23)cc1C` the EC50 [1, 5] was 9.84 µM.
`Cc1ccnc2c1NC(=O)c1cccnc1N2C1CC1` [NEVIRAPINE] gave an EC50 [1, 5] of 0.15 µM and a CC50 [2] of over 10 µM.
With `COc1ccccc1-c1nc2c(S(=O)(=O)c3cccc(Cl)c3)nnn2c2ccsc12` the EC50 [1, 5] was 1.3 µM, the CC50 [2] was 45 µM and the selectivity ratio [3] was 34.
`O=S(=O)(c1cccc(Cl)c1)c1nnn2c1nc(-c1cccc(Cl)c1)c1sccc12` showed an EC50 [1, 5] of 0.54 µM, a CC50 [2] of 47 µM and a selectivity ratio [3] of 87.
In the case of `O=C(Nc1ccc(Cl)cc1)c1nnn2c1nc(N1CCOCC1)c1sccc12`, the EC50 [1, 5] is reported as 16 µM, the CC50 [2] is reported as 57 µM and the selectivity ratio [3] is reported as 3.5.
Work on `O=S(=O)(c1cccc(Cl)c1)c1nnn2c1nc(-c1ccccc1)c1sccc12` yielded an EC50 [1, 5] of 0.27 µM, a CC50 [2] of 61 µM and a selectivity ratio [3] of 225.
`O=S(=O)(c1ccc(Cl)cc1)c1nnn2c1nc(N1CCOCC1)c1sccc12` gave an EC50 [1, 5] of 5 µM, a CC50 [2] of 70 µM and a selectivity ratio [3] of 14.
`O=S(=O)(c1cc(Cl)cc(Cl)c1)c1nnn2c1nc(N1CCOCC1)c1sccc12` gave an EC50 [1, 5] of 4 µM, a CC50 [2] of 51 µM and a selectivity ratio [3] of 12.7.
With `CCS(=O)(=O)c1nnn2c1nc(N1CCOCC1)c1sccc12` the EC50 [1] was “Not Active” and the CC50 [2] was over 50 µM.
Work on `Nc1nc2c(S(=O)(=O)c3cccc(Cl)c3)nnn2c2ccsc12` yielded an EC50 [1, 5] of 1.6 µM, a CC50 [2] of over 50 µM and a selectivity ratio [3] of over 31.
With `CN1CCN(c2nc3c(S(=O)(=O)c4cccc(Cl)c4)nnn3c3ccsc23)CC1` the EC50 [1, 5] was 2.1 µM, the CC50 [2] was over 50 µM and the selectivity ratio [3] was over 23.
Work on `COc1cccc(-c2nc3c(S(=O)(=O)c4cccc(Cl)c4)nnn3c3ccsc23)c1` yielded an EC50 [1, 5] of 0.32 µM, a CC50 [2] of 46 µM and a selectivity ratio [3] of 143.
Work on `O=S(=O)(c1cccc(OC(F)(F)F)c1)c1nnn2c1nc(N1CCOCC1)c1sccc12` yielded an EC50 [1, 5] of 10 µM, a CC50 [2] of over 50 µM and a selectivity ratio [3] of over 5.
Molecule `O=C(Nc1ccccc1Cl)c1nnn2c1nc(N1CCOCC1)c1sccc12` has an EC50 [1, 5] of 3.5 µM, a CC50 [2] of over 50 µM and a selectivity ratio [3] of over 14.
